According to patent publication US20250327027A1, “METHODS TO GENERATE ENHANCED TUMOR INFILTRATING LYMPHOCYTES THROUGH MICROFLUIDIC DELIVERY” (STEMCELL TECHNOLOGIES CANADA INC., priority 2021, published 2025):
Where “and” joins values, the source holds several entries; their conditions need not be identical. Equal values may be shown once.

Columns and labels:
Assay type in all cases: cell-based
[1] = system: melanoma TILs; assay: Comparison of microfluidic chips and anti-CD3 antibody clones used in REP (mbIL-2/mbIL-12 expression); settings: anti-CD3 clone used in REP culture; 4 hours post squeeze
Source text: As described herein, TILs are often expanded to increase their number prior to their use in adoptive transfer studies Such expansion phase can involve the use of anti-CD3 antibodies to activate and induce the TILs to proliferate. Whether the specific anti-CD3 antibody clone used in the expansion phase was next assessed. Briefly, melanoma TILs were collected from REP cultures that contained different anti-CD3 clones (OKT3, SK7, HIT3a, or UCHT1). Following cell harvest, the post-REP TILs were resuspended at 40 million live cells/mL cell density as 2× concentration. The cells were mixed with equal volume of 2× mRNA solution and squeezed through various chip types (10-3.5-70 SF, 10-4-70 ST) and pressure (30 psi) at room temperature. Final concentration of cells was 20 million live cells/mL. Final mRNA concentration for squeeze was […] for each of mbIL-2 and mbIL-12 mRNA. Following the squeeze processing, cells were quenched in CTS OpTmizer media and spun immediately. […] The squeezed TILs were assessed at 4 hours post squeeze by flow cytometry for viability, cell composition, and surface levels of mbIL-2 and mbIL-12.

[2] = system: TILs; assay: Effect of anti-CD3 antibody on TIL expansion from melanoma tumor fragments (NucleoCounter NC-200); settings: for Cell Count on Day 13 / Viability on Day 13: 6,000 IU/mL recombinant IL-2, replicate wells
Method: Further to the data provided in Example 22, the effect of anti-CD3 antibody on TIL expansion was further assessed. Briefly, freshly resected melanoma tumor was rinsed in 1× Hank's Balanced Salt Solution (HBSS) with 10 μg/mL gentamicin and dissected into 8-27 mm^3 fragments using a forceps and scalpel. […] Five tumor fragments, 8-27 mm^3 in size, per well were added to the G-Rex6M plate. The G-Rex6M plate was then placed in a 37° C., 5% CO2 incubator for 4 days.
On day 4, the G-Rex6M plate was removed from the incubator. […] The G-Rex6M plate was returned to the 37° C., 5% CO2 incubator for an additional 9 days.
On day 13, the TILs were harvested and transferred to a 50 mL conical tube. The number and viability of the TILs was assessed using a NucleoCounter NC-200.

[3] = system: lung TILs; assay: Comparison of anti-CD3 antibody concentration in pre-REP (mbIL-2/mbIL-12 and CD62L expression); settings: 6 or 30 ng/mL anti-CD3 antibody (OKT3 clone) during pre-REP
Method: As described herein, in some aspects, prior to modifying the TILs, the TILs can undergo a first expansion phase (pre-REP) and a second expansion phase (REP). Whether the concentration of the anti-CD3 antibody during the first expansion phase has an effect in producing the modified TILs described herein, the following methods were used. Briefly, lung TILs underwent a pre-REP process in the absence or presence of 6 or 30 ng/mL anti-CD3 antibody (OKT3 clone). Then, the TILs were collected and further expanded in a REP process. Afterwards, the cells were resuspended at 40 million live cells/mL cell density as 2× concentration. The cells were mixed with equal volume of 2× mRNA solution and squeezed through 10-4-70 ST at 60 psi at room temperature. Final concentration of cells was 20 million live cells/mL. Final mRNA concentration for squeeze was […] for each of mbIL-2 and mbIL-12 mRNA. Following squeezing, cells were quenched in CTS OpTmizer media and spun immediately. […] The squeezed TILs were assessed at 4, 24, and 48 hours post squeeze by flow cytometry for viability, cell composition, surface levels of mbIL-2 and mbIL-12.

“OKT3: anti-CD3 antibody clone used in TIL expansion” was tested, and the “mbIL-2 and mbIL-12 expression (percentage of total cells and MFI)” value [1] was “higher expression”, the “Cell Count on Day 13” value ([2]; 6 ng/mL OKT3) was 2.35 × 10^8 and 2.43 × 10^8 and the “Viability on Day 13” value ([2]; 6 ng/mL OKT3) was 90.7% and 91.1%. For the same substance, the “Cell Count on Day 13” value ([2]; 20 ng/mL OKT3) was 2.00 × 10^8 and 2.17 × 10^8, the “Viability on Day 13” value ([2]; 20 ng/mL OKT3) was 90.5% and 91.6% and the TIL expansion ([2]; 6 or 30 ng/mL of OKT3, day 13, compared to culture without OKT3) was “greater TIL expansion”. For the same substance, the “impact on translation kinetics of mbIL-2 and mbIL-12 expression” value [3] was “minimal impact”.
